For ten compounds, TGI and GI50 results are on record in PubChem BioAssay (NCI).

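These data come from cells grown in 96-well plates and exposed to compound for 48 hours at five concentrations. GI50: concentration for 50% inhibition of growth. TGI: concentration producing complete growth inhibition.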

Among the test systems are 786-0 renal; MALME-3M melanoma; NCI-H23 lung; NCI-H522 lung; RPMI-8226 leukemia; SF-539 CNS; TK-10 renal; UO-31 renal; HCT-116 colon.
What all share (experiment): NCI-60 cell line screen, 48 h

Take `CCCCCCCCCOC(=S)NC`: the TGI in the assay with 786-0 renal worked out at 33.5 µM; with MALME-3M melanoma, 43.8 µM; in the assay on NCI-H23 lung it was 34.6 µM; with NCI-H522 lung it was 31.2 µM; in the assay on RPMI-8226 leukemia, 48.4 µM; in the assay on SF-539 CNS, 32.5 µM. For the same compound, the TGI in the assay with TK-10 renal was 54.6 µM; in the assay with UO-31 renal, 23.2 µM.
Turning to `CCOC(=O)/C(=C/c1ccc(OC)c(OC)c1)C(=O)c1ccccc1`, the TGI is > 100 µM in the assay on 786-0 renal; > 100 µM in the assay on MALME-3M melanoma; 35.6 µM in the assay on NCI-H23 lung; 29.1 µM in the assay on NCI-H522 lung; 39.1 µM in the assay on RPMI-8226 leukemia; 65.4 µM in the assay with TK-10 renal. The TGI with UO-31 renal is 27.5 µM.
As to `CSc1nc(NC2OCC(OC(C)=O)C(OC(C)=O)C2OC(C)=O)c(N=CC=Nc2c(NC3OCC(OC(C)=O)C(OC(C)=O)C3OC(C)=O)nc(SC)n(C)c2=O)c(=O)n1C` (stereo unspecified), the TGI in the assay on 786-0 renal, in the assay with HCT-116 colon, in the assay with MALME-3M melanoma, in the assay on NCI-H23 lung, with NCI-H522 lung and in the assay on RPMI-8226 leukemia was > 100 µM throughout. For the same compound, the TGI in the assay with SF-539 CNS, in the assay on TK-10 renal and with UO-31 renal was > 100 µM throughout.
Consider `CCCCCCCC1c2cc3[nH]c(cc4nc(cc5[nH]c(cc(n2)[C@@]1(C)CC(=O)N(C)C)c(C)c5CCC(=O)O)C(CCC(=O)O)=C4C)cc3C` (stereo partly specified), for which the TGI in the assay on 786-0 renal was found to be 83.1 µM; in the assay with HCT-116 colon it was 32.5 µM; with MALME-3M melanoma, 39 µM; in the assay with NCI-H23 lung, 34.1 µM; in the assay on NCI-H522 lung, 37.8 µM; with RPMI-8226 leukemia, 47.7 µM. Also, the TGI with SF-539 CNS was determined as 34.2 µM; in the assay with TK-10 renal, 79.3 µM; in the assay on UO-31 renal it was 32.5 µM.
Take `O=C1CN(c2cccc(C(F)(F)F)c2)C(=O)CN1NCNN1CC(=O)N(c2cccc(C(F)(F)F)c2)CC1=O`: the TGI with 786-0 renal, with HCT-116 colon, with NCI-H522 lung, in the assay with RPMI-8226 leukemia, in the assay on SF-539 CNS and in the assay on TK-10 renal was > 100 µM each time. Also, in the assay on UO-31 renal, the TGI is > 100 µM.
For the compound `Cc1nc(NC(=S)NC(=O)c2ccc(Cl)c(Cl)c2)sc1C(=O)/C=C/c1ccccc1[N+](=O)[O-]`, the TGI with 786-0 renal was 33.5 µM; with HCT-116 colon, 47.9 µM; with MALME-3M melanoma, 41.9 µM; in the assay with NCI-H23 lung, 44.9 µM; in the assay with NCI-H522 lung, 33.7 µM; with RPMI-8226 leukemia, > 100 µM. Also, the TGI in the assay with SF-539 CNS is 40.5 µM; in the assay with TK-10 renal it was 71.3 µM; with UO-31 renal, 45.6 µM.
`CCCCCCCCN(CCCCCCCC)C(=N)c1ccnc2ccccc12`: the GI50 with 786-0 renal is 1.02 µM; with HCT-116 colon, 1.24 µM; in the assay with MALME-3M melanoma, 1.12 µM; in the assay with NCI-H23 lung it was 1.49 µM; in the assay on NCI-H522 lung, 1.48 µM; in the assay with SF-539 CNS, 1.54 µM. For the same compound, the results for the GI50 in the assay on TK-10 renal and in the assay with UO-31 renal were 1.44 µM and 0.953 µM, respectively. In addition, the TGI turned out to be 2.37 µM in the assay on 786-0 renal; 2.55 µM in the assay on HCT-116 colon; 2.59 µM in the assay on MALME-3M melanoma; 3.03 µM in the assay with NCI-H23 lung; 2.92 µM in the assay on NCI-H522 lung; 2.99 µM in the assay with SF-539 CNS. Further, the figures for the TGI in the assay with TK-10 renal and in the assay on UO-31 renal were 2.83 µM and 2.29 µM, respectively.
Consider `COc1ccc(OC)c(/C=C/c2nnc(Nc3ccc(Cl)cc3)o2)c1`, for which the GI50 with 786-0 renal is 2.67 µM; in the assay with HCT-116 colon, 2.97 µM; in the assay with MALME-3M melanoma, 9.87 µM; in the assay with NCI-H23 lung it was 21.7 µM; in the assay with NCI-H522 lung, 7.13 µM; in the assay with RPMI-8226 leukemia, > 100 µM. For the same compound, the GI50 in the assay with SF-539 CNS is 11.8 µM; in the assay with TK-10 renal, 7.4 µM; in the assay with UO-31 renal, 3.13 µM. Further, the TGI with 786-0 renal is 7.6 µM; in the assay with HCT-116 colon, 13.1 µM; with MALME-3M melanoma it was 52.4 µM; with NCI-H23 lung it was > 100 µM; in the assay with NCI-H522 lung, 83.7 µM; in the assay on RPMI-8226 leukemia, > 100 µM. The TGI in the assay on SF-539 CNS was 60.5 µM; in the assay with TK-10 renal, 83.2 µM; in the assay on UO-31 renal, 12.6 µM.
Turning to `CS(=O)(=O)c1ccc(N/N=C/c2c(-c3ccc(S(C)(=O)=O)cc3)[nH]c3ccc(F)cc23)cc1`, the GI50 was 1.69 µM in the assay with 786-0 renal; 2.68 µM in the assay on HCT-116 colon; 1.34 µM with MALME-3M melanoma; 2.84 µM in the assay with NCI-H23 lung; 2.08 µM in the assay on NCI-H522 lung; 1.15 µM in the assay on RPMI-8226 leukemia. Besides, the GI50 in the assay on SF-539 CNS was 0.676 µM; with TK-10 renal, 2.95 µM; in the assay on UO-31 renal, 2.16 µM. Moreover, the TGI in the assay on 786-0 renal was > 50 µM; in the assay on HCT-116 colon it was > 50 µM; in the assay with MALME-3M melanoma, 4.38 µM; in the assay with NCI-H23 lung, > 50 µM; with NCI-H522 lung, > 50 µM; in the assay on RPMI-8226 leukemia, 2.9 µM. For the same compound, the TGI with SF-539 CNS is 2.11 µM; in the assay on TK-10 renal, > 50 µM; in the assay with UO-31 renal it was > 50 µM.
Turning to `O=C(O)/C(Cl)=C(\Cl)Nc1cccc(C(F)(F)F)c1`, the TGI in the assay on 786-0 renal, in the assay on MALME-3M melanoma, in the assay on NCI-H23 lung, in the assay with TK-10 renal and with UO-31 renal was > 100 µM throughout.
